Structures can show the parent of a compound that is named as a salt.
Assays:
[1] = molecular target: T1, dopamine-β-hydroxylase (DBH) (Bos taurus, UniProt P15101); experiment: biochemical; details: in vitro; tyramine to octopamine; absorbance at 330 nm; read-out: IC50 (molar concentration of compound at which DBH activity was halved)
T1 sequence (P15101 1-610): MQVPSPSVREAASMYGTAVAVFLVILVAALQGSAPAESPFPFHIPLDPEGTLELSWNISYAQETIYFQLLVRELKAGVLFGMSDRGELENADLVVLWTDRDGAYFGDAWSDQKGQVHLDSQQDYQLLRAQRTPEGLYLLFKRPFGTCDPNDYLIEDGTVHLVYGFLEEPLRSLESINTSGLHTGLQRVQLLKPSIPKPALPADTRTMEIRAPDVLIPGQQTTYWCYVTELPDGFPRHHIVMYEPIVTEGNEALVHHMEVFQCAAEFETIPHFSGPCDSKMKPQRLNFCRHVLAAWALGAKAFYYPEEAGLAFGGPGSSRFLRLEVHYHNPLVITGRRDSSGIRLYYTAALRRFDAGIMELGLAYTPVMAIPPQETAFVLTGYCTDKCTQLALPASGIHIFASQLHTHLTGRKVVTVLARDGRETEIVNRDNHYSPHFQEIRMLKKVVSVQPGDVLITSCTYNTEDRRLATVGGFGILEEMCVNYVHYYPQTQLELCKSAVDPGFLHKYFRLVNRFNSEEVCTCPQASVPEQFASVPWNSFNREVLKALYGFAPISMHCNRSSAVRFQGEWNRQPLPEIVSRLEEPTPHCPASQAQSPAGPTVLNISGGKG
Experimental: Octopamine was assayed following sodium periodate oxidation to p-hydroxybenzaldehyde by measuring spectrophotometric absorbance at 330 nm. […] Melting points (mp) are given in °C.

DBH [2] = details: cited from earlier work; for DBH inhibition / mode of DBH inhibition: result in words
[3] = result in words; Teresawa et al.; cited from earlier work
DBH [4] = details: treated patients; Friedman et al.; significance uncertain; cited from earlier work
[5] = tested on: spontaneously hypertensive rats; experiment: in vivo activity in spontaneously hypertensive rats: electrolyte excretion, urine volume, systolic blood pressure, heart rate; set-up: species or system rats (Okamoto-Aoki strain spontaneously hypertensive); details: for Heart Rate 1st dose / Systolic Blood Pressure 1st dose: after 1st dose; for Heart Rate 1st dose / Systolic Blood Pressure 1st dose / Heart Rate 2nd dose / Systolic Blood Pressure 2nd dose: tail-cuff; for Heart Rate 2nd dose / Systolic Blood Pressure 2nd dose: two hours after 2nd dose; for Electrolytes Excreted K^+ / Electrolytes Excreted Na^+ / Urine Volume: urine collected for three hours
Text: The following procedure was used to test, for in vivo activity, compounds which can be used to inhibit DBH activity in mammals, including certain illustrative compounds of the invention. The compounds wherein R is --CO2 H or --CH2 NHC6 H5, X is --H, Y is --H and n is 1 are not compounds of the invention but can be used in the method of the invention.
Male, Okamoto-Aoki strain spontaneously hypertensive rats, aged 16-20 weeks, were used for testing. The afternoon before testing, the animals were fasted and the following morning the first dose of the test compound was administered, p.o., along with a 25 ml/kg load of normal saline. The animals were then placed in metabolism cages, three per cage, and urine was collected for three hours and subsequently analyzed for sodium, potassium, and creatinine. Indirect systolic blood pressure and heart rate were measured via a tail-cuff method and the animals received an identical second does of the test compound. Two hours after the second dose, the systolic blood pressure and heart rate were again determined. Drugs were administered as a solution or suspension in normal saline with 0.02% ascorbic acid.
Three rats weighing 270-320 g were used. Each received two intraperitoneal injections, in a 24 hour period, of a dose volume of 5 mL and a dose concentration of 50 mg/kg or 25 mg/kg, in 0.9% NaCl, following a 24 hour pretreatment dose. Averaged results with control animals, three per experiment, are reported in parentheses below results of test animals.

[6] = result in words; cited from earlier work
[7] = at certain concentrations; Ehrreich et al.; cited from earlier work

`NCc1nccn1Cc1ccccc1` [R = CH2 NH2.2HCl, Y = H, X = H, n = 1, 1-benzyl-2-aminomethyl imidazole dihydrochloride] gave an IC50 [1] of 240 µM.

In the case of `O=C(O)c1ccc(CCC(Br)CBr)cn1` (centres unmarked) [5-(3,4-dibromo)butyl picolinic acid], the DBH inhibition (DBH [2]) is given as “DBH inhibitors”.

In the case of `O=C(O)c1ccc(CCCCCl)cn1` [5-(4-chlorobutyl)picolinic acid], the DBH inhibition (DBH [2]) is given as “can inhibit DBH”.

With `COc1ccc(CCCn2ccnc2C(=O)O)cc1` [R = CO2 H.HCl, Y = OCH3, X = H, n = 3, 1-[3-(4-methoxyphenyl)propyl]imidazole-2-carboxylic acid hydrochloride] the IC50 [1] was 95 µM.

With `O=C(O)c1nccn1Cc1ccc(O)cc1` [R = CO2 H.HCl, Y = OH, X = H, n = 1, hydrochloride hydrate] the IC50 [1] was 90 µM.

In the case of `CCCCc1ccc(C(=O)O)nc1` [Fusaric acid], the hepatotoxicity [3] is listed as “hepatotoxic”.

With `COc1ccc(Cn2ccnc2C(=O)O)cc1` [R = CO2 H.HCl, Y = OCH3, X = H, n = 1, 1-(4-methoxybenzyl)imidazole-2-carboxylic acid hydrochloride] the IC50 [1] was 75 µM.

In the case of `CC(C)NCC(O)COc1cccc2ccccc12` (racemic) [propanolanol], the DBH levels (DBH [4]) is listed as “not”.

In the case of `O=C(O)c1ccc(Cc2ccc(O)cc2)cn1` [phenopicolinic acid], the “DBH inhibitory activity relative to fusaric acid” value (DBH [2]; Runti et al.) is listed as “twice the inhibitory activity of fusaric acid” and the DBH inhibition (DBH [2]) is listed as “can inhibit DBH”.

For `NNCc1ccccc1` [benzylhydrazine], the “mode of DBH inhibition” value (DBH [2]) is given as “apparently act as competitive inhibitors”.

For `CC(N)(Cc1ccc(O)c(O)c1)C(=O)O` (stereo not drawn) [alpha-methyl-DOPA], the DBH levels (DBH [4]) is given as “lowered DBH levels”.

With `O=C(O)c1nccn1CCCc1ccc(O)cc1` [R = CO2 H.1/2 H2 O, Y = OH, X = H, n = 3, 1-[3-(4-hydroxyphenyl)propyl]imidazole-2-carboxylic acid, hemihydrate] the IC50 [1] was 70 µM, the “Na^+ /K^+ ratio” value ([5]; dose = 25 mg/kg) was 1.313 and the “Heart Rate 1st dose” value ([5]; dose = 25 mg/kg) was 400 beats/min. For the same compound, the “Systolic Blood Pressure 1st dose” value ([5]; dose = 25 mg/kg) was 176 mmHg, the “Heart Rate 2nd dose” value ([5]; dose = 25 mg/kg) was 440 beats/min and the “Systolic Blood Pressure 2nd dose” value ([5]; dose = 25 mg/kg) was 173 mmHg. The “Electrolytes Excreted K^+” value ([5]; dose = 25 mg/kg) was 152.18 μEq/rat, the “Electrolytes Excreted Na^+” value ([5]; dose = 25 mg/kg) was 199.74 μEq/rat and the “Urine Volume” value ([5]; dose = 25 mg/kg) was 6 ml/rat. The “in vivo activity as diuretic” value ([5]; result in words) was “significant diuretic activity”.

In the case of `CCCCc1ccc(C(N)=O)nc1` [Bupicomide, 5-(n-butyl)picolinamide], the antihypertensive activity [6] is given as “antihypertensive activity” and the DBH inhibition (DBH [2]) is given as “DBH inhibitor”.

Compound `c1ccc(CNCc2nccn2Cc2ccccc2)cc1` [1-benzyl-2-benzylaminomethyl imidazole dihydrochloride] has an IC50 [1] of 100 µM.

For `NCCc1ccc(O)c(O)c1` [DA, dopamine], the vasodilator activity [7] is given as “selective vasodilator activity at certain concentrations”.

With `Br.Br.Oc1ccc(Cn2ccnc2CNc2ccccc2)cc1` [1-(4-hydroxybenzyl)-2-phenylaminomethyl imidazole dihydrobromide] the IC50 [1] was over 100 µM, the “Na^+ /K^+ ratio” value ([5]; dose = 50 mg/kg) was 2.927 and the “Heart Rate 1st dose” value ([5]; dose = 50 mg/kg) was 440 beats/min. For the same compound, the “Systolic Blood Pressure 1st dose” value ([5]; dose = 50 mg/kg) was 181 mmHg, the “Heart Rate 2nd dose” value ([5]; dose = 50 mg/kg) was 480 beats/min and the “Systolic Blood Pressure 2nd dose” value ([5]; dose = 50 mg/kg) was 175 mmHg. The “Electrolytes Excreted K^+” value ([5]; dose = 50 mg/kg) was 74.27 μEq/rat, the “Electrolytes Excreted Na^+” value ([5]; dose = 50 mg/kg) was 217.36 μEq/rat and the “Urine Volume” value ([5]; dose = 50 mg/kg) was 3 ml/rat. For the same compound, the “in vivo activity as cardiotonic” value ([5]; result in words) was “significant cardiotonic activity”.

In the case of `CN(C)C(=S)SCc1ccc(C(=O)O)nc1` [5-(dimethyldithiocarbamoyl)methyl picolinic acid], the DBH inhibition (DBH [2]) is listed as “DBH inhibitors”.

In the case of `Br.Br.NCc1nccn1Cc1ccc(O)cc1` [R = CH2 NH2.2HBr, Y = OH, X = H, n = 1, 1-(4-hydroxybenzyl)-2-aminomethyl imidazole dihydrobromide], the IC50 [1] is reported as 35 µM, the “Na^+ /K^+ ratio” value ([5]; dose = 25 mg/kg) is reported as 2.159 and the “Heart Rate 1st dose” value ([5]; dose = 25 mg/kg) is reported as 420 beats/min. The “Systolic Blood Pressure 1st dose” value ([5]; dose = 25 mg/kg) was 161 mmHg, the “Heart Rate 2nd dose” value ([5]; dose = 25 mg/kg) was 440 beats/min and the “Systolic Blood Pressure 2nd dose” value ([5]; dose = 25 mg/kg) was 158 mmHg. For the same compound, the “Electrolytes Excreted K^+” value ([5]; dose = 25 mg/kg) was 103.42 μEq/rat, the “Electrolytes Excreted Na^+” value ([5]; dose = 25 mg/kg) was 223.24 μEq/rat and the “Urine Volume” value ([5]; dose = 25 mg/kg) was 3 ml/rat. The “in vivo activity as antihypertensive” value ([5]; result in words) was “significant antihypertensive activity”.

For `NOCc1ccccc1` [Benzyloxyamine, benzyloxyamine], the “mode of DBH inhibition” value (DBH [2]) is listed as “apparently act as competitive inhibitors”.

In the case of `COC(=O)[C@H]1[C@H]2C[C@@H]3c4[nH]c5cc(OC)ccc5c4CCN3C[C@H]2C[C@@H](OC(=O)c2cc(OC)c(OC)c(OC)c2)[C@@H]1OC` [reserpine], the DBH levels (DBH [4]) is listed as “lowered DBH levels”.

In the case of `O=C(O)c1nccn1Cc1ccccc1` [R = CO2 H.HCl, Y = H, X = H, n = 1], the IC50 [1] is reported as 11 µM, the “Na^+ /K^+ ratio” value ([5]; dose = 50 mg/kg) is reported as 1.270 and the “Heart Rate 1st dose” value ([5]; dose = 50 mg/kg) is reported as 440 beats/min. The “Systolic Blood Pressure 1st dose” value ([5]; dose = 50 mg/kg) was 211 mmHg, the “Heart Rate 2nd dose” value ([5]; dose = 50 mg/kg) was 480 beats/min and the “Systolic Blood Pressure 2nd dose” value ([5]; dose = 50 mg/kg) was 185 mmHg. The “Electrolytes Excreted K^+” value ([5]; dose = 50 mg/kg) was 214.52 μEq/rat, the “Electrolytes Excreted Na^+” value ([5]; dose = 50 mg/kg) was 272.54 μEq/rat and the “Urine Volume” value ([5]; dose = 50 mg/kg) was 15 ml/rat. The “in vivo activity as antihypertensive” value ([5]; result in words) was “significant in vivo activity”, the “in vivo activity as cardiotonic” value ([5]; result in words) was “significant in vivo activity” and the “in vivo activity as diuretic” value ([5]; result in words) was “significant in vivo activity”. For the same compound, the “in vivo activity as natriuretic” value ([5]; result in words) was “significant in vivo activity”.
